Reference: US8026257B2 (Bristol-Myers Squibb Company, priority 2007, dated 2011)
Where two headings read alike, the source gives them in different places.

Experiments:
NK-1 = biological target: T1, NK-1 (Homo sapiens, UniProt P25103); assay: NK1 radioligand binding assay ([125I]Substance P, U373 membranes); conditions: U373 cell membranes, 200 pM [125I]Substance P, 1 hour at room temperature
T1 construct: 30 ul/well of a 2×U373 membrane preparation
Method: (§1) NK-1 Binding assay. Crude membrane suspensions were prepared for the NK1 and SERT radioligand binding assays from U373 cells or recombinant HEK-293 cells expressing hSERT, respectively. Cells were harvested from T-175 flasks as follows. The medium is removed from the flasks and the cells rinsed with HBSS without Ca and without Mg. The cells are then incubated for 5-10 minutes in 10 mM Tris-Cl, pH 7.5, 5 mM EDTA before the cells are lifted with a combination of pipetting and scraping, as needed. To prepare membranes, the cell suspension is collected into centrifuge bottles and homogenized for 30 seconds with a Polytron homogenizer. The suspension is centrifuged for 30 min@32,000×g, 4° C., then the supernatant is decanted and the pellet resuspended and homogenized in 50 mM Tris-Cl, pH 7.5, 1 mM EDTA for 10 seconds. The suspension is then centrifuged again for 30 min@32,000×g, 4° C. The supernatant is decanted and the pellet resuspended in 50 mM Tris-Cl, pH 7.5, 1 mM EDTA and briefly homogenized. A Bradford assay (Bio-rad) is performed and the membrane preparation diluted to 2 mg/ml with 50 mM Tris-Cl, pH 7.5, 1 mM EDTA. Aliquots are prepared, and then frozen and stored at −80° C.
NK1 radioligand binding assay. Compounds are dissolved in 100% DMSO at a concentration 100× the desired highest assay concentration, serially diluted 1:3 in 100% DMSO, and 0.6 ul/well of each solution is dispensed to a Nunc polypropylene, round bottom, 384 well plate. 100% inhibition is defined with 0.6 ul/well of 1 mM L-733,060 (Sigma L-137) dissolved in DMSO. 30 ul/well of a 2×U373 membrane preparation (267 ug/ml in 100 mM Tris-Cl, pH 7.5, 6 mM MgCl2, 0.2% (v/v) Sigma mammalian protease inhibitor cocktail (Sigma P-8340), and 4 ug/ml chymostatin, Sigma C-7268) and 30 ul/well of a 2× radioligand solution (400 pM [^125I]Substance P (Perkin ElmerNEX-190) in 1% (w/v) BSA (Sigma A-2153), 0.1 mg/ml bacitracin, Sigma B-0125) are added to the well and the reaction incubated for 1 hour at room temperature. The contents of the assay plate are then transferred to a Millipore MultiscreenHTS GF/B filter plate which has been pretreated with 0.5% PEI for at least one hour. The plate is vacuum filtered and washed with 7 washes of 100 ul/well of 20 mM Tris-Cl, pH 7.5, 0.5% (w/v) BSA chilled to 4° C. The filtration and washing is completed in less than 90 s. The plates are air-dried overnight, 12 ul/well of MicroScint scintillation fluid added, and the plates counted in a Trilux.
(§2) Data analysis. The raw data are normalized to percent inhibition using control wells defining 0% (DMSO only) and 100% (selective inhibitor) inhibition which are run on each plate. Each plate is run in triplicate, and the concentration response curve thus generated is fit using the four-parameter dose response equation, Y=Bottom+(Top-Bottom)/(1+10^((LogIC50−X)*HillSlope)) in order to determine the IC50 value for each compound. The radioligand concentration chosen for each assay corresponds to the Kd concentration determined through saturation binding analysis for each assay.

hSERT = hSERT (Homo sapiens, UniProt P31645); assay: SERT radioligand binding assay ([125I]RTI-55, HEK-hSERT membranes); conditions: HEK-293 hSERT membranes, 260 pM [125I]RTI-55, 1 hour at room temperature
Chain of hSERT (P31645 whole entry): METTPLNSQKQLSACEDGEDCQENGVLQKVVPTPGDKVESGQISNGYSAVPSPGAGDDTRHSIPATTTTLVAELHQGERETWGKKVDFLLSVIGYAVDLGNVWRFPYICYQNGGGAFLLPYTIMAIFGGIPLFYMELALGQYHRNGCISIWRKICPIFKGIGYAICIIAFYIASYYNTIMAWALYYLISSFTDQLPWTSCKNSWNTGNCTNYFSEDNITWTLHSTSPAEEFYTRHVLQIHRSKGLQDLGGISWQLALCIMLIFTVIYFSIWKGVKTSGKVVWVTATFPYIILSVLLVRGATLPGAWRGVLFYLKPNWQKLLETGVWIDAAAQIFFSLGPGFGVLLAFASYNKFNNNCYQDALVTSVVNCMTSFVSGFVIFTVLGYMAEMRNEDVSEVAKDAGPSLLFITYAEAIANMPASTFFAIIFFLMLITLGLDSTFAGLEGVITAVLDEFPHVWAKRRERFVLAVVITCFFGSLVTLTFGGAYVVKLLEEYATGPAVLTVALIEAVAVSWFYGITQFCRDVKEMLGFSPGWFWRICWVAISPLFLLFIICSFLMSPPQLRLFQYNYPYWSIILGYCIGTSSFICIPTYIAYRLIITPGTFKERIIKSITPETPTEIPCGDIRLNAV
Method: as §1
SERT radioligand binding assay. Compounds are dissolved in 100% DMSO at a concentration 100× the desired highest assay concentration, serially diluted 1:3 in 100% DMSO, and 0.4 ul/well of each solution is dispensed to a Nunc polypropylene, round bottom, 384 well plate. 100% inhibition is defined with 0.4 ul/well of 1 mM fluoxetine (Sigma F-132) dissolved in DMSO. 20 ul/well of a 2× HEK-hSERT membrane preparation (15 ug/ml in 50 mM Tris-Cl, pH 7.5, 120 mM NaCl, 5mM KCl) and 20 ul/well of a 2× radioligand solution (520 pM [^125I]RTI-55 (Perkin-Elmer NEX-272) in 50 mM Tris-Cl, pH 7.5, 120 mM NaCl, 5mM KCl) are added to each well and the reaction incubated for 1 hour at room temperature. The contents of the assay plate are then transferred to a Millipore MultiscreenHTs GF/B filter plate which has been pretreated with 0.5% PEI for at least one hour. The plate is vacuum filtered and washed with 7 washes of 100 ul/well of 50 mM Tris-Cl, pH 7.5, 120 mM NaCl, 5 mM KCl chilled to 4° C. The filtration and washing is completed in less than 90 s. The plates are air-dried overnight, 12 ul/well of MicroScint scintillation fluid added, and the plates counted in a Trilux.
as §2

T1 sequence (P25103 whole entry): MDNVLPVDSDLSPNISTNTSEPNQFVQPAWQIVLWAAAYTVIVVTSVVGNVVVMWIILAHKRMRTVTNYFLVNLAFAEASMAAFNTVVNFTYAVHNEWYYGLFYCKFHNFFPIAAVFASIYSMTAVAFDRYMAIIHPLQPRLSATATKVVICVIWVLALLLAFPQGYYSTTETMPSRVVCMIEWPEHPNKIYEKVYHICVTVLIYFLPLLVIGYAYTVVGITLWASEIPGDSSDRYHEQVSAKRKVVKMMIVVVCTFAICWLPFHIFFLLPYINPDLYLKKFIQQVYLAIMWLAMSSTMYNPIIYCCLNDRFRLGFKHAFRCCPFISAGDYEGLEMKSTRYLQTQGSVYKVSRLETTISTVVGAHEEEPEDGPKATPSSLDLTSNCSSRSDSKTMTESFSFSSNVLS

Compound	IC50 (NK-1) [nM]	IC50 (hSERT; read-out: SERT IC50) [nM]	IC50 (hSERT; SERT IC50 (nM)) [nM]
CC(OCC1(c2ccc(F)cc2)CCN(C)CC1)c1cc(C(F)(F)F)cc2cn(C)nc12 (single isomer, unassigned) [Example 29, 7-(1-((4-(4-Fluorophenyl)-1-methylpiperidin-4-yl)methoxy)ethyl)-2-methyl-5-(trifluoromethyl)-2H-indazole]	> 300	0.01 to 100	
CC(OCC1(c2ccc(F)cc2)CCNCC1)c1cc(C(F)(F)F)cc2cnn(C)c12 (single isomer, unassigned) [Example 30, 7-(1-((4-(4-Fluorophenyl)piperidin-4-yl)methoxy)ethyl)-1-methyl-5-(trifluoromethyl)-1H-indazole]	0.01 to 100	0.01 to 100	
CC(OCC1(c2ccc(F)cc2)CCN(C)CC1)c1cc(C(F)(F)F)cc2cnn(C)c12 (single isomer, unassigned) [Example 31, 7-(1-((4-(4-Fluorophenyl)-1-methylpiperidin-4-yl)methoxy)ethyl)-1-methyl-5-(trifluoromethyl)-1H-indazole]	0.01 to 100	0.01 to 100	
CC(OCC1(c2ccc(F)cc2)CCNCC1)c1cc(C(F)(F)F)cc2cn(C)nc12 (single isomer, unassigned) [Example 32, 7-(1-((4-(4-Fluorophenyl)piperidin-4-yl)methoxy)ethyl)-2-methyl-5-(trifluoromethyl)-2H-indazole]	0.01 to 100	0.01 to 100	
CC(OCC1(c2ccc(F)cc2)CCN(C)CC1)c1cc(C(F)(F)F)cc2cn(C)nc12 (single isomer, unassigned) [Example 33, 7-(1-((4-(4-Fluorophenyl)-1-methylpiperidin-4-yl)methoxy)ethyl)-2-methyl-5-(trifluoromethyl)-2H-indazole]	0.01 to 100	0.01 to 100	
CC(OCC1(c2ccc(F)cc2)CCN(C)CC1)c1cc(C2CC2)cc2c(Cl)n[nH]c12 (single isomer, unassigned) [Example 54]	0.01 to 100		0.01 to 100
CC(OCC1(c2ccc(F)cc2)CCN(C)CC1)c1cc(C(F)(F)F)cc2ccn(C)c12 (single isomer, unassigned) [Example 74, 7-(1-((4-(4-Fluorophenyl)-1-methylpiperidin-4-yl)methoxy)ethyl)-1-methyl-5-(trifluoromethyl)-1H-indole]	> 300	100 to 300	
CC(OCC1(c2ccc(F)cc2)CCN(C)CC1)c1cc(C(F)(F)F)cc2ccn(C)c12 (single isomer, unassigned) [Example 75, 7-(1-((4-(4-Fluorophenyl)-1-methylpiperidin-4-yl)methoxy)ethyl)-1-methyl-5-(trifluoromethyl)-1H-indole]	0.01 to 100	0.01 to 100	
CC(OCC1(c2ccccc2)CCN(C)CC1)c1cc(Br)cc2c1ncn2CC1CC1 (single isomer, unassigned) [Example 130]	> 300	0.01 to 100	
CC(OCC1(c2ccccc2)CCN(C)CC1)c1cc(Br)cc2c1ncn2CC1CC1 (single isomer, unassigned) [Example 131]	0.01 to 100	0.01 to 100	
CC(OCC1(c2ccc(F)cc2)CCN(C)CC1)c1cc(C(F)(F)F)cc2c1ncn2CC1CC1 (single isomer, unassigned) [Example 133]	> 300	0.01 to 100	
CC(OCC1(c2ccc(F)cc2)CCN(C)CC1)c1cc(C(F)(F)F)cc2c1ncn2CC1CC1 (single isomer, unassigned) [Example 134]	0.01 to 100	0.01 to 100	
CCn1cnc2c(C(C)OCC3(c4ccc(F)cc4)CCN(C)CC3)cc(C(F)(F)F)cc21 (single isomer, unassigned) [Example 135]	> 300	0.01 to 100	
CCn1cnc2c(C(C)OCC3(c4ccc(F)cc4)CCN(C)CC3)cc(C(F)(F)F)cc21 (single isomer, unassigned) [Example 136]	0.01 to 100	0.01 to 100	
CCn1cnc2c(C(C)OCC3(c4ccccc4)CCN(C)CC3)cc(C(F)(F)F)cc21 (single isomer, unassigned) [Example 137]	100 to 300	0.01 to 100	
Cc1cc(COCC2(c3ccccc3)CCNCC2)cc2cn[nH]c12 [Example 1, 7-Methyl-5-(((4-phenylpiperidin-4-yl)methoxy)methyl)-1H-indazole]	> 300	0.01 to 100	
Brc1cc(COCC2(c3ccccc3)CCNCC2)c2[nH]ncc2c1 [Example 2, 5-Bromo-7-(((4-phenylpiperidin-4-yl)methoxy)methyl)-1H-indazole]	0.01 to 100	0.01 to 100	
N#Cc1ccc(-c2cc(COCC3(c4ccccc4)CCNCC3)c3[nH]ncc3c2)cc1 [Example 3, 4-(7-(((4-Phenylpiperidin-4-yl)methoxy)methyl)-1H-indazol-5-yl)benzonitrile]	0.01 to 100	0.01 to 100	
Cn1ncc2cc(-c3ccc(C#N)cc3)cc(COCC3(c4ccccc4)CCNCC3)c21 [Example 4, 4-(1-Methyl-7-(((4-phenylpiperidin-4-yl)methoxy)methyl)-1H-indazol-5-yl)benzonitrile]	100 to 300	0.01 to 100	
Cn1cc2cc(-c3ccc(C#N)cc3)cc(COCC3(c4ccccc4)CCNCC3)c2n1 [Example 5, 4-(2-Methyl-7-(((4-phenylpiperidin-4-yl)methoxy)methyl)-2H-indazol-5-yl)benzonitrile]	> 300	0.01 to 100	
Cc1cc(COCC2(c3ccccc3)CCNCC2)c2[nH]ncc2c1 [Example 6, 5-Methyl-7-(((4-phenylpiperidin-4-yl)methoxy)methyl)-1H-indazole]	0.01 to 100	0.01 to 100	
Cc1cc(COCC2(c3ccccc3)CCNCC2)c2c(cnn2C)c1 [Example 7, 1,5-Dimethyl-7-(((4-phenylpiperidin-4-yl)methoxy)methyl)-1H-indazole]	0.01 to 100	0.01 to 100	
Cc1cc(COCC2(c3ccccc3)CCNCC2)c2nn(C)cc2c1 [Example 8, 2,5-Dimethyl-7-(((4-phenylpiperidin-4-yl)methoxy)methyl)-2H-indazole]	0.01 to 100	0.01 to 100	
FC(F)(F)c1cc(COCC2(c3ccccc3)CCNCC2)c2[nH]ncc2c1 [Example 9, 7-(((4-Phenylpiperidin-4-yl)methoxy)methyl)-5-(trifluoromethyl)-1H-indazole]	0.01 to 100	0.01 to 100	
CN1CCC(COCc2cc(C(F)(F)F)cc3cn[nH]c23)(c2ccccc2)CC1 [Example 10, 7-(((1-Methyl-4-phenylpiperidin-4-yl)methoxy)methyl)-5-(trifluoromethyl)-1H-indazole]	0.01 to 100	0.01 to 100	
Cn1ncc2cc(C(F)(F)F)cc(COCC3(c4ccccc4)CCNCC3)c21 [Example 11, 1-Methyl-7-(((4-phenylpiperidin-4-yl)methoxy)methyl)-5-(trifluoromethyl)-1H-indazole]	0.01 to 100	0.01 to 100	
